Measured values reported in patent US11116212B2, “Carbonyl containing compounds for controlling and repelling Cimicidae populations” (SemiosBio Technologies Inc., priority 2011, dated 2021).
Structures can show the parent of a compound that is named as a salt. Where two headings read alike, the source gives them in different places.

Test system: bed bugs, Cimex lectularius
Assay: Bed bug repellency bioassay, glass tube olfactometer arena
Type: in vivo
Conditions: for pest or weed control at 5 % strength / pest or weed control at 25 % strength / pest or weed control at 1 %: Cimex lectularius; for % Repellency, At least One Average >50%: best average over 3 replicates for a single time period
Procedure: Per individual bioassay, 10 adult or late instar nymph bed bugs, Cimex lectularius, of mixed sex. Bed bugs sourced from wild, field populations and tested within 2 weeks of capture. Subjects were tested one time, only.
(ii) Olfactometer consisting of a glass tube. Tube ends were plugged to prevent egress of test subjects. Test substrates were placed at opposite ends of the tube. Tube Olfactometer includes a port in the centre for introduction of test subjects. Dimensions of the tube were 15.2 mm in diameter by 304.8 mm long.
Compounds were either purchased from commercial sources or synthesized using conventional synthetic organic chemistry techniques (see, for example, Examples 5 to 7). Some compounds (014, 058 and 080) were tested in duplicate (one version from commercial sources and one synthesized) and the best performance is reported in the Tables below. Of the tested compounds reported in the Tables below, the following compounds were synthesized: 006, 010, 017, 018, 040, 041 to 043, 045, 046, 048, 049, 058, 067 to 075, 079, 080 to 082, 089 and 090.
Test compounds consisted of a control and treatment. The treatment consisted of a test compound mixed as a percentage w/w in a suitable solvent. The test compound solvent itself was used as a control. Solvents used were hexane, hexane:methanol, or dichloromethane:methanol.
(i) Gauze cut to a standard size and folded upon itself to provide harbourage for test subjects.
(iii) Absorbent polymer “aroma” beads that were given sufficient time to fully absorb test compounds and control solvents.
In the case of gauze and filter paper substrates, control solvents and test mixtures of known concentrations and volumes were dispensed directly onto substrates using a pipette. For polymer beads, beads were mixed w/w with solvent or test compound in a small glass jar. The jars were occasionally agitated to facilitate soaking of the beads.
Immediately after the substrates were infused with test compounds and control solvents, test subjects were introduced to the centre of the selected observation arena. […] Only subjects that were in close contact with the treatment or control substrates were recorded. Subjects elsewhere in the arena were not included in repellency calculations. Percentage repellency was calculated based on a modification of Abbott's formula to account for negative repellency (attraction). Specifically: IF(C>=T,(C−T)/C*100,(T−C)/T*−100)
where C is number of test subjects in contact with control substrate and T is number of test subjects in contact with treatment substrate.
All average repellency results reported in the table are based on 3 replicates for each reported trial, with each trial involving at least 3 observation periods. The observation periods were short-term (30 min), medium-term (1-2 hours), and long-term (24-48 hours). The “overall average” reported in the table represents the average for 3 replicates for 3 observation periods. […]
To determine whether compounds could be combined in the repellent compositions, compounds 14 and 35 were each tested at a concentration of 5% (w/w), and as a combination comprising each compound at a concentration of 2.5% (w/w). The formulations were tested as described in Example 1 using the olfactometer configuration.

[1] = gauze, 50 uL, 5% w/v in hexane, average of 3 replicates x 3 observation periods, read-out: % Repellency (% R), Overall Average
[2] = gauze, 10 uL, 1% v/v in hexane, average of 3 replicates x 3 observation periods, read-out: % Repellency (% R), Overall Average
[3] = beads, 20 uL, 25% w/w in hexane, average of 3 replicates x 3 observation periods, read-out: % Repellency (% R), Overall Average
[4] = observation period T1, beads, 20 uL, 25% w/w in hexane, read-out: % Repellency T1 (average of 3 repetitions)
[5] = observation period T2, beads, 20 uL, 25% w/w in hexane, read-out: % Repellency T2 (average of 3 repetitions)
[6] = observation period T3, beads, 20 uL, 25% w/w in hexane, read-out: % Repellency T3 (average of 3 repetitions)
[7] = observation period T1, gauze, 10 uL, 1% v/v in hexane, read-out: % Repellency T1 (average of 3 repetitions)
[8] = observation period T2, gauze, 10 uL, 1% v/v in hexane, read-out: % Repellency T2 (average of 3 repetitions)
[9] = observation period T3, gauze, 10 uL, 1% v/v in hexane, read-out: % Repellency T3 (average of 3 repetitions)
[10] = beads, 20 uL, 25% w/w in hexane
[11] = observation period T1, gauze, 50 uL, 5% w/v in hexane, read-out: % Repellency T1 (average of 3 repetitions)
[12] = observation period T2, gauze, 50 uL, 5% w/v in hexane, read-out: % Repellency T2 (average of 3 repetitions)
[13] = observation period T3, gauze, 50 uL, 5% w/v in hexane, read-out: % Repellency T3 (average of 3 repetitions)
[14] = gauze, 50 uL, 5% w/v in hexane, best single observation (one repetition, one time), read-out: % Repellency, At least One Time >50%

With `CCC(C)C(=O)c1ccco1` (stereo not shown) [Compound 089, 1-furan-2-yl-2-methylbutan-1-one] the pest or weed control at 5 % strength [1] was > 80%.

In the case of `CCCC(=O)c1ccco1` [Compound 086, 2-butyrylfuran], the pest or weed control at 25 % strength (beads, 20 uL, 25% w/w in hexane:methanol (1:1), average of 3 replicates x 3 observation periods, read-out: % Repellency (% R), Overall Average) is reported as > 80%.

With `CCCCC(=O)c1ccco1` [Compound 090, 1-Pentanone, 1-(2-furanyl)-] the pest or weed control at 5 % strength [1] was > 80%.

`CCOC(=O)CCC(C)=O` [Compound 076, ethyl levulinate] was tested, and the pest or weed control at 5 % strength [1] was 69%.

`CCCC(=O)/C=C/CO` [Compound 046, (E)-1-hydroxyhept-2-en-4-one] gave a pest or weed control at 5 % strength [1] of 65%.

Work on `CCC(=O)N(C)CC(OC)OC` [Compound 049, N-(2,2-dimethoxyethyl)-N-methylpropionamide] yielded a pest or weed control at 1 % [2] of 78%.

For `CC(=O)C(C)C(C)C(C)=O` (stereo not shown) [Compound 025, 3,4-dimethyl-2,5-hexanedione], the pest or weed control at 25 % strength [3] was 77%.

`COC(=O)CCC=O` [Compound 052, Methyl 4-oxobutanoate] was tested, and the pest or weed control at 25 % strength [3] was -17%, the pest or weed control at 25 % strength (beads, 20 uL, 25% w/w in hexane, best single observation (one repetition, one time), read-out: % Repellency, At least One Time >50%) was 100% and the pest or weed control at 25 % strength [4] was 11%. The pest or weed control at 25 % strength [5] was -50% and the pest or weed control at 25 % strength [6] was -11%.

`CCC/C=C/C=O` [Compound 038, trans-2-hexen-1-al] gave a pest or weed control at 5 % strength [1] of 72%.

Work on `CCCCCC=O` [Compound 037, hexanal] yielded a pest or weed control at 5 % strength [1] of 79%.

In the case of `CCCCCCC(=O)CC` [Compound 028, 3-Nonanone], the pest or weed control at 1 % [2] is reported as -10%, the pest or weed control at 1 % (gauze, 10 uL, 1% v/v in hexane, best single observation (one repetition, one time), read-out: % Repellency, At least One Time >50%) is reported as 67% and the pest or weed control at 1 % [7] is reported as -11%. It also gave a pest or weed control at 1 % [8] of -11% and a pest or weed control at 1 % [9] of -6%.

`C=CCNC(=O)CC` [Compound 043, N-allylpropionamide] gave a pest or weed control at 5 % strength [1] of 59%.

Work on `CCOC(=O)/C=C/C(=O)CC` [Compound 068, (E)-ethyl 4-oxohex-2-enoate] yielded a pest or weed control at 1 % [2] of 43%, a pest or weed control at 1 % [7] of 30% and a pest or weed control at 1 % [8] of 32%. The pest or weed control at 1 % [9] was 65% and the “% Repellency, At least One Average >50%” value (gauze, 10 uL, 1% v/v in hexane) was 65%.

For `CC(C)C(=O)c1ccco1` [Compound 082, 1-(2-furyl)-2-methyl-propan-1-one], the pest or weed control at 25 % strength [3] was > 80%.

Work on `CCC(=O)NCCO` [Compound 018, N-(2-hydroxyethyl) propionamide] yielded a pest or weed control at 25 % strength [3] of 50%, a pest or weed control at 25 % strength [4] of 69% and a pest or weed control at 25 % strength [5] of 69%. For the same molecule, the pest or weed control at 25 % strength [6] was 11% and the “% Repellency, At least One Average >50%” value [10] was 69%.

`CCC(C)C(O)c1ccco1` (stereo not shown) [Compound 072] was tested, and the pest or weed control at 5 % strength [1] was 79%.

In the case of `CCC(=O)CC(=O)OC` [Compound 034, Methyl 3-oxovalerate], the pest or weed control at 5 % strength [1] is reported as 27%, the pest or weed control at 5 % strength [11] is reported as 81% and the pest or weed control at 5 % strength [12] is reported as 94%. For the same molecule, the pest or weed control at 5 % strength [13] was -94% and the “% Repellency, At least One Average >50%” value (gauze, 50 uL, 5% w/v in hexane) was 94%.

Molecule `CCC(=O)COC=O` [Compound 010, 2-oxobutyl formate] has a pest or weed control at 25 % strength [3] of 45%, a pest or weed control at 25 % strength [4] of 85% and a pest or weed control at 25 % strength [5] of 42%. The pest or weed control at 25 % strength [6] was 8% and the “% Repellency, At least One Average >50%” value [10] was 85%.

`CCC(=O)c1ccco1` [Compound 014, 1-(furan-2-yl)propan-1-one] was tested, and the pest or weed control at 25 % strength [3] was > 80% and the “% R (Overall Average)” value (Example 2, single compound at 5% (w/w)) was 71%.

With `CCOC(C#CC(=O)CC)OCC` [Compound 079, 6,6-diethoxyhex-4-yn-3-one] the pest or weed control at 5 % strength [1] was > 80%.

Molecule `CCC(=O)CC` [Compound 062, 3-pentanone] has a pest or weed control at 5 % strength [1] of 10%, a pest or weed control at 5 % strength [14] of 89% and a pest or weed control at 5 % strength [11] of -11%. It also gave a pest or weed control at 5 % strength [12] of -3% and a pest or weed control at 5 % strength [13] of 43%.

`CC(=O)/C=C/C=O` [Compound 001, 4-oxo-2-pentenal] was tested, and the pest or weed control at 5 % strength [1] was 57%.

`CC(=O)c1ccco1` [Compound 080, 2-Furyl methyl ketone] was tested, and the pest or weed control at 5 % strength [1] was > 80%.

Molecule `CC(C)C(O)c1ccco1` (stereo not shown) [Compound 071, 1-(furan-2-yl)-2-methylpropan-1-ol] has a pest or weed control at 1 % [2] of 57%.

Molecule `CCC(O)c1ccco1` (stereo not shown) [Compound 075, 1-(furan-2-yl) propan-1-ol] has a pest or weed control at 1 % [2] of 79%.

In the case of `CCC(=O)/C=C(\C)C(C)=O` [Compound 074, (E)-3-methylhept-3-ene-2,5-dione], the pest or weed control at 25 % strength (beads, 20 uL, 25% w/w in dichloromethane:methanol (1:1), average of 3 replicates x 3 observation periods, read-out: % Repellency (% R), Overall Average) is reported as > 80%.

`CCC(=O)/C(C)=C/c1ccco1` [Compound 048, (E)-1-(furan-2-yl)-2-methylpent-1-en-3-one] was tested, and the pest or weed control at 5 % strength [1] was > 80%.

For `CCCC(=O)CC` [Compound 026, 3-Hexanone], the pest or weed control at 5 % strength [1] was 15%, the pest or weed control at 5 % strength [14] was 100% and the pest or weed control at 5 % strength [11] was 44%. It also gave a pest or weed control at 5 % strength [12] of 37% and a pest or weed control at 5 % strength [13] of -36%.

`CCCC(=O)CCC` [Compound 051, 4-heptanone] was tested, and the pest or weed control at 25 % strength [3] was > 80%.

Work on `CCC(=O)OCC1CCCO1` (stereo not shown) [Compound 060, Tetrahydro furfuryl propionate] yielded a pest or weed control at 25 % strength [3] of 78%.

For `CCCC(=O)/C=C/C=O` [Compound 003, 4-oxo-2-heptenal], the pest or weed control at 5 % strength [1] was > 80%.

In the case of `CCC(=O)/C=C/c1ccco1` [Compound 040, (E)-1-(furan-2-yl)pent-1-en-3-one], the pest or weed control at 5 % strength [1] is reported as > 80%.

With `CCC(=O)/C=C/C(=O)CC` [Compound 067, (E)-oct-4-ene-3,6-dione] the pest or weed control at 5 % strength (gauze, 50 uL, 5% w/v in hexane:methanol (1:1), average of 3 replicates x 3 observation periods, read-out: % Repellency (% R), Overall Average) was > 80%.

For `CC(=O)OCc1ccco1` [Compound 084, Furfuryl acetate], the pest or weed control at 25 % strength [3] was 61%.

With `CC(=O)CC/C=C(\C)CCC=C(C)C` [Compound 044, 6,10-dimethyl-5,9-undecadien-2-one] the pest or weed control at 5 % strength [1] was > 80%.

With `COC(=O)/C=C/C(=O)OC` [Compound 058, dimethyl fumarate] the pest or weed control at 5 % strength [1] was > 80%.

`CCC(=O)/C=C/C(=O)O` [Compound 070, (E)-4-oxohex-2-enoic acid] was tested, and the pest or weed control at 1 % (gauze, 10 uL, 1% v/v in hexane:methanol (1:1), average of 3 replicates x 3 observation periods, read-out: % Repellency (% R), Overall Average) was 74%.
